Residues, ends and D or L forms follow the SMILES beside them. *: point of attachment. FITC = O=C1OC2(c3ccc(O)cc3Oc3cc(O)ccc32)c2ccc(NC(=S)*)cc21
How the values were obtained:
BAT from wild‐type mice = assay: H&E staining and Ucp1 immunostaining of BAT; assay type: in vivo, wild‐type C57BL/6J mice; conditions: GPCBi 5.5 mg kg^−1 orthotopically into BAT
Procedure: (§1) The mouse experiments were approved by the Institutional Animal Care and Use Committee of the Institute of Model Animals of Tongji Hospital, Huazhong University of Science and Technology, and were performed in compliance with all relevant ethical regulations (approval number: TJH‐202110044). Unless otherwise noted, the mice were housed in a pathogen‐free and climate‐controlled environment (22–25 °C, 40‐60% humidity) and were given free access to food and water on a 12 h light/dark cycle. Wild‐type C57BL/6J mice were obtained from Beijing Huafukang Bioscience Co., Ltd. (Beijing, China). Gabpa ^flox/flox , Adipoq^Cre , and Ucp1^Cre mice were purchased from Cyagen Biosciences, Inc. (Guangzhou, China). For GPCBi treatment, wild‐type mice were orthotopically injected GPCBi (FITC‐[…]; 5.5 mg kg^−1) or scramble peptide (FITC‐[…]; 5.5 mg kg^−1) into the BAT at room temperature for one week. […] For cold exposure, the mice were caged individually and exposed to a temperature of 10 or 4 °C. The mice were euthanized by CO2 inhalation. For studies with specific diets, five‐week‐old male Gabpα ^Adipo KI mice and their respective littermate control mice were fed a HFD (D12492, Research Diets; 60 kcal% fat, 20 kcal% carbohydrates, and 20 kcal% protein; Medicience Ltd., Jiangsu, China) at ambient temperature. The food was changed every week. Body weight was measured every week, and tissue weights were measured at the time of euthanasia.
For haematoxylin and eosin (H&E) staining, adipose tissues and the liver were fixed in 4% paraformaldehyde overnight at 4 °C and then dehydrated in 70% ethanol. The tissues were subsequently embedded in paraffin, sectioned at a thickness of 5 µm, and stained with H&E or immunostained with a Ucp1 antibody (Abcam, UK, Cat# ab234430, 1:500 dilution) following the standard protocol. For Oil Red O staining, frozen liver sections were stained with Oil Red O solution for 10 min and then counterstained with haematoxylin for 20 s. Images of the tissue samples were captured via an Olympus BX53 Orthomicroscope. […]

[1] = tested on: differentiated iBAT‐SVF cells; assay: Relative mRNA and protein levels in differentiated iBAT-SVF cells; assay type: cell-based, C57BL/6 mice; conditions: GPCBi 5 µM
Procedure: Interscapular BAT‐SVF cells were obtained from eight‐week‐old male C57BL/6 mice. […] The tissue homogenates were filtered through a 70 µm cell strainer and centrifuged at 1000 rpm for 5 min. The cell pellet was resuspended in DMEM supplemented with 10% FBS (Sigma–Aldrich) and 1% penicillin/streptomycin (P/S) at 37 °C with 5% CO2. The next day, BAT‐SVF cells were immortalized with the SV40 large T antigen according to a published protocol.^[ [32] ^] […] After 48 h, the induction medium was replaced with a maintenance cocktail (5 µg mL^−1 insulin, 1 nM triiodo‐L‐thyronine, and 1 µM rosiglitazone) until 6 to 8 days after the induction of differentiation.
Reverse transcription of cDNA was completed via the use of 1 µg of RNA with HiScript II Q RT SuperMix for real‐time quantitative PCR (qPCR) (Vazyme Biotech, Nanjing, China, Cat# R222) according to the provided protocols. qPCR was performed with a real‐time PCR system on a QuantStudio1 (Applied Biosystems) using Taq Pro Universal SYBR qPCR Master Mix (Vazyme Biotech., Nanjing, China, Cat# Q712‐02). Relative transcript levels were calculated via the comparative C T method; 36b4 was used as the internal control for cells, whereas Hprt was used as the internal control for tissues. The primer sequences are listed in Table S1 (Supporting Information). The mRNAs from the BAT of control and Gabpα ^Ucp1 KO mice were extracted and subjected to commercial RNA‐seq (BGI Genomics Co., Ltd.) for further DEG and KEGG pathway enrichment analysis. In detail, RNA quality was examined with Fragment (Agilent). High‐quality RNA (RIN > 8.0) was used to library construction. RNA‐seq was performed at BGI Genomics (China) using the Illumina NovaSeq 6000 platform. Clean reads were aligned to the mouse reference genome (GRCm39) using Bowtie2, and transcript quantification was performed with RSEM. […] The RNA‐seq data generated in this study have been deposited in the National Center for Biotechnology Information Sequence Read Archive database under accession code PRJNA1358056.
Cells and tissues were lysed in RIPA lysis buffer (Beyotime, Shanghai, China, Cat# P0013B) containing a protease inhibitor cocktail (MedChem Express, NJ, USA, Cat# HY‐K0010) according to the manufacturer's protocol. Equal amounts of protein were separated on SDS‒PAGE gels and transferred to PVDF membranes (Millipore). The PVDF membranes were blocked in 5% skim milk for 1 h at room temperature and then incubated with primary antibody overnight at 4 °C. The membranes were washed three times with TBST and then incubated with HRP‐conjugated secondary antibodies for 1 h at room temperature. After washing three times, the Western blots were imaged via an enhanced chemiluminescence system.

wild‐type mice [2] = assay: BAT mass, body weight, tissue mass and morphology of mice after BAT injection of peptide; assay type: in vivo, wild‐type C57BL/6J mice; conditions: GPCBi 5.5 mg kg^−1 orthotopically into BAT
Procedure: as §1

wild‐type mice [3] = assay: Cold challenge: rectal core body temperature and survival; assay type: in vivo, wild‐type C57BL/6J mice; conditions: 4 °C
Procedure: as §1, with “For studies with specific diets, five‐week‐old male Gabpα ^Adipo KI mice and their respective littermate control mice were fed a HFD (D12492, Research Diets; 60 kcal% fat, 20 kcal% carbohydrates, and 20 kcal% protein; Medicience Ltd., Jiangsu, China) at ambient temperature. The food was changed every week.” left out

wild‐type mice [4] = assay: Oxygen consumption and heat production (CLAMS); assay type: in vivo, wild‐type C57BL/6J mice; conditions: GPCBi‐injected mice, room temperature, n = 4 (Figure 4n,o; Figure S4i,j)
Procedure: The mouse experiments were approved by the Institutional Animal Care and Use Committee of the Institute of Model Animals of Tongji Hospital, Huazhong University of Science and Technology, and were performed in compliance with all relevant ethical regulations (approval number: TJH‐202110044). Unless otherwise noted, the mice were housed in a pathogen‐free and climate‐controlled environment (22–25 °C, 40‐60% humidity) and were given free access to food and water on a 12 h light/dark cycle. Wild‐type C57BL/6J mice were obtained from Beijing Huafukang Bioscience Co., Ltd. (Beijing, China). Gabpa ^flox/flox , Adipoq^Cre , and Ucp1^Cre mice were purchased from Cyagen Biosciences, Inc. (Guangzhou, China). For GPCBi treatment, wild‐type mice were orthotopically injected GPCBi (FITC‐[…]; 5.5 mg kg^−1) or scramble peptide (FITC‐[…]; 5.5 mg kg^−1) into the BAT at room temperature for one week. […] Body weight was measured every week, and tissue weights were measured at the time of euthanasia.
Three‐month‐old mice (Gabpα ^Ucp1 KO, Gabpα ^Adipo KI, peptide GPCBi, and respective littermate control mice) were subjected to whole‐body energy expenditure measurements in metabolic chambers. Oxygen consumption and heat production were monitored via a Comprehensive Laboratory Animal Monitoring System (CLAMS, Columbus Instruments) at specific temperatures. […]

Gabpα–Pparγ interaction = assay: Co-IP of His-Gabpα and Myc-Pparγ with peptide GPCBi; assay type: binding; conditions: HEK293T cells cotransfected with His‐Gabpα and Myc‐Pparγ, GPCBi 30 µM, 48 h, anti‐His IP (Figure S4c)

CC[C@H](C)[C@H](NC(=O)[C@H](CCCNC(=N)N)NC(=O)[C@H](CS)NC(=O)[C@H](CC(N)=O)NC(=O)[C@H](CC(C)C)NC(=O)[C@H](CC(=O)O)NC(=O)[C@H](CS)NC(=O)[C@H](CCCNC(=N)N)NC(=O)[C@H](CC(=O)O)NC(=O)[C@H](Cc1ccc(O)cc1)NC(=O)[C@@H](NC(=O)[C@H](CC(C)C)NC(=O)[C@H](CCCCN)NC(=O)[C@H](CC(C)C)NC(=O)[C@H](CCCNC(=N)N)NC(=O)[C@@H](NC(=O)[C@@H](NC(=O)[C@H](CCCNC(=N)N)NC(=O)[C@H](CCCNC(=N)N)NC(=O)[C@H](CCCNC(=N)N)NC(=O)[C@H](CCCNC(=N)N)NC(=O)[C@H](CCCNC(=N)N)NC(=O)[C@H](CCC(N)=O)NC(=O)[C@H](CCCNC(=N)N)NC(=O)[C@H](CCCNC(=N)N)NC(=O)[C@H](CCCCN)NC(=O)[C@H](CCCCN)NC(=O)[C@H](CCCNC(=N)N)NC(=O)CNC(=O)[C@H](Cc1ccc(O)cc1)NC(=S)Nc1ccc2c(c1)C(=O)OC21c2ccc(O)cc2Oc2cc(O)ccc21)[C@@H](C)O)[C@@H](C)CC)[C@@H](C)CC)C(=O)N[C@@H](Cc1c[nH]cn1)C(=O)N[C@@H](CCCCN)C(=O)N[C@@H](CCCCN)C(=O)N[C@@H](CO)C(=O)N[C@@H](CCCNC(=N)N)C(=O)N[C@@H](CC(N)=O)C(=O)N[C@@H](CCCCN)C(=O)O [GPCBi] ({FITC}-YGRKKRRQRRRRRTIRLKLIYDRCDLNCRIHKKSRNK-OH; N-terminus and C-terminus assumed)
lipid accumulation in BAT (BAT from wild‐type mice; H&E, 7 days (Figure 4i,j)): increased lipid accumulation
Ucp1 abundance in BAT (BAT from wild‐type mice; Ucp1 immunostaining, 7 days (Figure 4i,k)): decreased Ucp1 abundance
expression of glycolytic and thermogenic genes ([1]; first 2 days of adipogenic differentiation (Figure 4e,f), mRNA n = 3): decreased the expression of glycolytic and thermogenic genes
expression of adipogenic gene Adipoq ([1]; first 2 days of adipogenic differentiation (Figure 4e,f), n = 3): did not change
expression of Ldh and Ucp1 in brown adipocytes ([1]; first 2 days of adipogenic differentiation (Figure 5m)): lower expression
regulatory gene expression of the futile lipid cycle, differentiated iBAT‐SVF cells ([1]; first 2 days of adipogenic differentiation (Figure S5c)): substantially impaired
thermogenic gene ucp1 in GPCBi‐treated brown adipocytes ([1]; first 2 days of adipogenic differentiation, without Enoblock (Figure 5p)): downregulated
BAT morphology (wild‐type mice [2]; one week (Figure S4f)): morphological changes
body weight or the morphology or tissue mass of IngWAT, EpiWAT, or the liver (wild‐type mice [2]; one week, n = 4 (Figure S4e-g)): no significant changes
BAT mass (wild‐type mice [2]; room temperature, one week, versus scramble peptide, n = 4 (Figure S4g)): reduced BAT mass
maintenance of core body temperature under acute cold stress (wild‐type mice [3]; control n = 7, GPCBi n = 8 (Figure 4q)): struggled to maintain their core body temperatures
mortality under acute cold stress (wild‐type mice [3]; control n = 7, GPCBi n = 8 (Figure 4r)): increased mortality
oxygen consumption and heat production (wild‐type mice [4]): significant decreases
binding capacity between Gabpα and Pparγ (Gabpα–Pparγ interaction): decreased
